From patent publication US12269800B2, “Delivery of therapeutic alkaloid compounds” (priority 2021, dated 2025)
Like-named read-outs stand apart in the source and are kept apart here. Blank lines part the entries; values can stand above or below the molecule they belong to.

Columns and labels:
[1] = type: physicochemical
Protocol: The hydrolysis kinetics was under a certain temperature and measured by LCMS at a certain time interval. The corresponding LCMS chromatograms were recorded and the conversions were calculated. The hydrolysis conditions and the data were summarized in below table. LCMS spectra were obtained using Agilent 1200G1956A or SHIMADZU LCMS-2020. Standard LCMS conditions were as follows (running time 1.55 minutes):
Acidic condition: Mobile Phase A: 0.0375% TFA in water (v/v). Mobile Phase B: 0.01875% TFA in acetonitrile (v/v); Column: Kinetex EVO C18 30*2.1 mm, 5 μm.
Basic condition: Mobile Phase A: 0.025% NH3—H2O in water (v/v). Mobile Phase B: Acetonitrile; Column: Kinetex EVO C18 2.1×30 mm, 5 μm.
Conversion (%)=peak area 1/(peak area 1+peak area 2)*100%, peak area 1 is the integration of hydrolyzed product, peak area 2 is the integration of starting material.

[2] = 5 µM
[3] = Plasma Stability Assay of Example A3, mouse plasma; settings: % of prodrug compound remaining, 37° C.
[4] = remark: listed apart in the source
Protocol: General Procedure for intravenous pharmacokinetic study in mice: Male C57/BL6 mice were used to evaluate each compound, with n=3 mice/time point. Animals were administered through intravenous route with solution formulation at 2 mg/kg dose. […] Following blood collection, immediately, animals were sacrificed, and vena-cava was cut open and blood was drained. […] Brain samples were collected from set of three mice at each time point. […] Brain samples were homogenized using 2 volumes of ice-cold PBS (pH-7.4) of brain weight. […] Concentrations of compound (or compound and metabolite) in mouse plasma and brain samples were determined by fit for purpose LC-MS/MS method.

[5] = Oral dose pharmacokinetic study in mice (10 mg/kg)
Protocol: Total thirty-five male mice were used for each study with n=5 mice/time point. Animals were administered through oral route with solution formulation at 10 mg/kg dose. The formulation vehicle used was normal saline. […] Brain samples were collected from set of five mice at 0.083, 0.25, 0.50, 1.0, 1.5, 2.0 and 3.0 h.
The plasma and brain concentration-time data of 001 was used for the pharmacokinetic analysis.

[6] = Pharmacokinetics of 043 and 001 in mice after oral 043 (75 mg/kg); type: in vivo, male C57BL/6 mice
Protocol: Total twelve male mice were used in this study. […] The formulation vehicle used was normal saline.
The plasma and brain concentration-time data of 043 and 001 was used for the pharmacokinetic analysis.
The extraction procedure for plasma/brain samples and the spiked plasma/brain calibration standards were identical:
A 25 μL of study sample plasma/brain (dilution applied to some samples) or spiked plasma calibration standard was added to individual pre-labeled micro-centrifuge tubes followed by 100 μL of internal standard prepared in acetonitrile (Glipizide-500 ng/mL) was added except for blank, where 100 μL of acetonitrile was added. Samples were vortexed for 5 minutes. Samples were centrifuged for 10 minutes at a speed of 4000 rpm at 4° C. Following centrifugation, 100 μL of clear supernatant was transferred in 96 well plates and analyzed using LC-MS/MS.

[7] = Plasma Stability Assay of Example A3, human plasma; settings: % of prodrug compound remaining, 37° C., 0.0 min
[8] = Plasma Stability Assay of Example A4, rat plasma; settings: 37° C., % prodrug remaining
Protocol: (§1) 50 uL aliquots of positive controls and test compounds spiked into rat or human plasma (n=2) were added to a pre-warmed plate (37° C.) and shaken at 50 rpm. At each respective time point, the reaction was stopped by adding 500 μL of acetonitrile containing internal standards (100 nM aprozolam, 200 nM caffeine, 100 nM tolbutamide). All samples were vortexed for 10 minutes, followed by centrifugation at 3,220 g for 30 minutes to precipitate proteins. 100 μL of the supernatant is transferred to a new plate. The supernatant will be diluted with ultrapure water according to the LC-MS signal response and peak shape.

[9] = Hydrolysis Assay of Example A2, Condition 1 (SGF with pepsin, pH 1.5, 37° C.); type: physicochemical
[10] = Plasma Stability Assay of Example A4, human plasma; settings: 37° C., % prodrug remaining
Protocol: as §1

[11] = type: physicochemical; settings: DI water, 25° C., 0.5 mM
[12] = fermentation, exposure to light, exposure to heat, aqueous medium; cited from earlier work
[13] = pH = 2.0, 25° C., 0.5 mM, 0.01M HCl, 0-24 h
[14] = 10 mg/kg po of the labelled compound in mice
[15] = analyte as labelled, single oral administration of 043, 75 mg/kg
[16] = brain, analyte as labelled, single oral administration of 043, 75 mg/kg
[17] = plasma, analyte as labelled, single oral administration of 043, 75 mg/kg

SMILES: COc1ccc([C@]23CCN(C)[C@H]2CC2(CC3)OCCO2)cc1OC (racemic) [Compound 013, 3′a-(3,4-dimethoxyphenyl)-1′-methyl-spiro[1,3-dioxolane-2,6′-2,3,4,5,7,7a-hexahydroindole]]
Notes (stability in words) [1]: Stable | conversion to mesembrine ([1]; acidic pH 2.0, 5° C.): not at 5 °C | conversion to mesembrine ([1]; acidic pH 2.0, 37 and 50° C.): converted to mesembrine

SMILES: COc1ccc([C@]23CCN(C)[C@H]2CC2(CC3)SCCS2)cc1OC (racemic) [Compound 014, (7′aS)-3′a-(3,4-dimethoxyphenyl)-1′-methyl-spiro[1,3-dithiolane-2,6′-2,3,4,5,7,7a-hexahydroindole]]
Notes (stability in words) [1, 13]: Stable

Human Plasma Prodrug (%) (0 min, 5 µM): 100% | Human Plasma Prodrug (%) (15 min, 5 µM): >99% | Human Plasma Prodrug (%) (30 min, 5 µM): 96.6% | Human Plasma Prodrug (%) (60 min, 5 µM): 85.7% | Human Plasma Prodrug (%) (120 min, 5 µM): 70.0% | Human Plasma Prodrug (%) (240 min, 5 µM): 54.3% | Mouse Plasma Prodrug (%) ([2]; 0 min): 100% | Mouse Plasma Prodrug (%) ([2]; 15 min): 86.2% | Mouse Plasma Prodrug (%) ([2]; 30 min): 81.0% | Mouse Plasma Prodrug (%) ([2]; 60 min): 67.6% | Mouse Plasma Prodrug (%) ([2]; 120 min): 38.7% | Mouse Plasma Prodrug (%) ([2]; 240 min): 19.8%
SMILES: COc1ccc([C@@]23CCC(=NNC(=O)Nc4ccc(C(=O)O)cc4)C[C@@H]2N(C)CC3)cc1OC (racemic) [Compound 259, 4-[[[(3aS,7aS)-3a-(3,4-dimethoxyphenyl)-1-methyl-2,3,4,5,7,7a-hexahydroindol-6-ylidene]amino]carbamoylamino]benzoic acid]

SMILES: COc1ccc([C@@]23CCC(=O)C[C@@H]2N(C)CC3)cc1OC [Compound 001, mesembrine, reference compound]
Mouse Plasma Prodrug (%) ([3]; 0.0 min): 100.0% | Human Plasma Prodrug (%): >99% | 001 quantifiable in brain up to ([4]; 2 mg/kg iv of the labelled compound in mice): 60 min | plasma levels of 001 ([4]; at 60, 120, 180 min, 2 mg/kg iv in mice): not detectable | brain levels of 001 ([4]; at 120, 180 min, 2 mg/kg iv in mice): not detectable | 001 quantifiable in brain up to [5, 14]: 60 min | 001 quantifiable in plasma up to [5, 14]: 2 h | brain levels of 001 ([5]; at 90, 120, 180 min, 10 mg/kg po in mice): not detectable | plasma levels of 001 ([5]; at 180 min, 10 mg/kg po in mice): not detectable | bioavailability ([5]; male, C57BL/6, mouse, plasma, po, 10 mg/kg): < 10% | brain concentrations quantifiable up to [6, 15]: 4 h | Kp ([6]; male, C57BL/6, mouse, brain, analyte as labelled, single oral administration of 043, 75 mg/kg, read-out: brain exposure-Kp): 2.55 | Tmax ([6]; male, C57BL/6, mouse, plasma, analyte as labelled, single oral administration of 043, 75 mg/kg, read-out: Tmax): 30 min | Human Plasma Prodrug (%) [7]: 100.0% | Notes (stability in words) ([1]; PH = 7.4, 25° C., 0.5 mM, PBS (20 mM), 0-24 h): Stable | Notes (stability in words) ([1]; PH = 7.4, 40° C., 0.5 mM, PBS (20 mM), 0-24 h): Stable | hydrolysis ([1]; pH 2.0 in 0.01 M HCl to pH 7.4 in 20 mM PBS, 25° C. to 40° C.): did not further hydrolyze | Notes (stability in words) [1, 13]: Stable | Notes (stability in words) ([1]; pH = 2.0, 40° C., 0.5 mM, 0.01M HCl, 0-24 h): Stable

SMILES: COc1ccc([C@@]23CCC(OC(C)=O)=C[C@@H]2N(C)CC3)cc1OC [Compound 026, [(3aS,7aS)-3a-(3,4-dimethoxyphenyl)-1-methyl-3,4,5,7a-tetrahydro-2H-indol-6-yl] acetate]
Rat Plasma Prodrug (%) ([8]; time 0.0 min): 100.0% | Rat Plasma Prodrug (%) ([8]; time 10 min): 0.0% | Rat Plasma Prodrug (%) ([8]; time 30 min): 0.0% | Rat Plasma Prodrug (%) ([8]; time 60 min): 0.0% | Rat Plasma Prodrug (%) ([8]; time 120 min): 0.0% | Rat Plasma Prodrug (%) ([8]; time 240 min): 0.0% | Condition 1 Conversion (%) ([9]; pH 1.5): 0% | Conversion (%) [1]: 0% | Notes (stability in words) [1]: Stable; | Human Plasma Prodrug (%) ([10]; time 0.0 min): 100.0% | Human Plasma Prodrug (%) ([10]; time 10 min): 40.3% | Human Plasma Prodrug (%) ([10]; time 30 min): 23.5% | Human Plasma Prodrug (%) ([10]; time 60 min): 12.0% | Human Plasma Prodrug (%) ([10]; time 120 min): 3.4% | Human Plasma Prodrug (%) ([10]; time 240 min): 0.8%

SMILES: COc1ccc([C@]23CCN(C)[C@H]2CC2(CC3)OCCO2)cc1OC [Compound 043]
conversion to 001 in vivo ([6]; 75 mg/kg po in mice): efficiently converts to 001 in vivo | brain concentrations quantifiable up to [6, 15]: 4 h | brain exposure-Kp [6, 15]: < 1 | AUClast [6, 16]: 1787.23 ng·h/mL | Cmax [6, 16]: 2684.81 ng/mL | Tmax [6, 16]: 30 min | AUClast [6, 17]: 2555.07 ng·h/mL | Cmax [6, 17]: 3392.53 ng/mL | Tmax [6, 17]: 30 min

SMILES: COc1ccc([C@@]23CCC(OC(=O)c4ccc(C(F)(F)F)cc4)=C[C@@H]2N(C)CC3)cc1OC [Compound 310]
Mouse Plasma Prodrug (%) ([3]; 0.0 min): 100.0% | Mouse Plasma Prodrug (%) ([3]; 15 min): 0.4% | Mouse Plasma Prodrug (%) ([3]; 30 min): 0.1% | Mouse Plasma Prodrug (%) ([3]; 60 min): 0.1% | Mouse Plasma Prodrug (%) ([3]; 120 min): 0.1% | Mouse Plasma Prodrug (%) ([3]; 240 min): 0.1% | Condition 2 Conversion (%) ([11]; time 1 min): 0% | Condition 2 Conversion (%) ([11]; time 5 min): 0% | Condition 2 Conversion (%) ([11]; time 30 min): 0% | Condition 2 Conversion (%) ([11]; time 1 h): 0% | Condition 2 Conversion (%) ([11]; time 4 h): 0% | Condition 2 Conversion (%) ([11]; time 24 h): 0% | Human Plasma Prodrug (%) [7]: 100.0% | Condition 1 Conversion (%) ([9]; SGF with pepsin pH 1.5, 37° C., 0.5 mM, time 1 min): 0% | Condition 1 Conversion (%) ([9]; SGF with pepsin pH 1.5, 37° C., 0.5 mM, time 5 min): 0% | Condition 1 Conversion (%) ([9]; SGF with pepsin pH 1.5, 37° C., 0.5 mM, time 30 min): 0% | Condition 1 Conversion (%) ([9]; SGF with pepsin pH 1.5, 37° C., 0.5 mM, time 1 h): 0% | Condition 1 Conversion (%) ([9]; SGF with pepsin pH 1.5, 37° C., 0.5 mM, time 4 h): 0% | Condition 1 Conversion (%) ([9]; SGF with pepsin pH 1.5, 37° C., 0.5 mM, time 24 h): 0%

SMILES: CCC(=O)OC1=C[C@@H]2N(C)CC[C@]2(c2ccc(OC)c(OC)c2)CC1 [Compound 317, [(3aS,7aS)-3a-(3,4-dimethoxyphenyl)-1-methyl-3,4,5,7a-tetrahydro-2H-indol-6-yl] propanoate]
conversion to 001 in vivo ([4]; 2 mg/kg iv in mice): converts to 001 in vivo | 001 quantifiable in plasma up to ([4]; male, C57BL/6, mouse, in vivo): 60 min | plasma levels of 001 ([4]; mouse, in vivo, iv, 2 mg/kg): not detectable

SMILES: COc1ccc([C@@]23CCC(OC(=O)CC(C)C)=C[C@@H]2N(C)CC3)cc1OC [Compound 334, [(3aS,7aS)-3a-(3,4-dimethoxyphenyl)-1-methyl-3,4,5,7a-tetrahydro-2H-indol-6-yl] 3-methylbutanoate]
conversion to 001 in vivo ([4]; 2 mg/kg iv in mice): converts to 001 in vivo | 001 quantifiable in brain up to ([4]; male, C57BL/6, mouse, in vivo): 120 min | 001 quantifiable in plasma up to ([4]; male, C57BL/6, mouse, in vivo): 60 min | plasma levels of 001 ([4]; mouse, in vivo, iv, 2 mg/kg): not detectable

SMILES: COc1ccc([C@@]23CCC(=O)C[C@@H]2N(C)CC3)cc1OC [mesembrine]
stability [12]: unstable
